Source: patent US20260159521A1, “RET-LDD PROTEIN INHIBITORS” (Bristol-Myers Squibb Company, priority 2022, published 2026)

Target: RET kinase (Homo sapiens, UniProt P07949)
Experiment: time resolved FRET-based competition binding assay (RET HTRF)

RET kinase, sequence (P07949 29-1114): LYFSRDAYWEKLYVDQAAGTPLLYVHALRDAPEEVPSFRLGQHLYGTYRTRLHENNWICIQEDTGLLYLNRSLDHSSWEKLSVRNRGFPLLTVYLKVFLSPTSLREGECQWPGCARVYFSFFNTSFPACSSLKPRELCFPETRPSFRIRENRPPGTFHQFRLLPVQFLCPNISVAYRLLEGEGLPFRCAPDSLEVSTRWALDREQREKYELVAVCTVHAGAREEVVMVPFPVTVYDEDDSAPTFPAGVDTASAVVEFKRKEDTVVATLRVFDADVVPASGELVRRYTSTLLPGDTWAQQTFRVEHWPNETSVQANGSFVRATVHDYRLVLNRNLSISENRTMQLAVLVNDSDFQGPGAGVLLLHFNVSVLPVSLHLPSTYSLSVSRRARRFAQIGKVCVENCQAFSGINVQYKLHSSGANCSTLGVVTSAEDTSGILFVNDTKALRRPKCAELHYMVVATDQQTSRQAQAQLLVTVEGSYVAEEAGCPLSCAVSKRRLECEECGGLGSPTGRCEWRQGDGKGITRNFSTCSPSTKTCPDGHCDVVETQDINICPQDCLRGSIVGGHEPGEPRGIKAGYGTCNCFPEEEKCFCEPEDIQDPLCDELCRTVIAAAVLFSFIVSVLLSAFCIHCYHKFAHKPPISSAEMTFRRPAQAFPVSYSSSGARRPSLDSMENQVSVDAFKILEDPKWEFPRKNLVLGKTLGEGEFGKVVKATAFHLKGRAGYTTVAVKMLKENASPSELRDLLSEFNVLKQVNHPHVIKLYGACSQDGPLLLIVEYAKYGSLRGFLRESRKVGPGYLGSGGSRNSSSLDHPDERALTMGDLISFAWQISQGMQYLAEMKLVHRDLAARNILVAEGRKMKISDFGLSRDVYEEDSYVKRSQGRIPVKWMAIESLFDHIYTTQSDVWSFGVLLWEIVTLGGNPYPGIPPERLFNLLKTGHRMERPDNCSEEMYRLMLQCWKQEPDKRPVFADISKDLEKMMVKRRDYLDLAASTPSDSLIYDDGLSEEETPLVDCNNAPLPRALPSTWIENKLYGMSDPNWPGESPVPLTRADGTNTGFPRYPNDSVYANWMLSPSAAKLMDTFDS

IC50: 37 nM
Compound: COCc1ccc(NC(=O)c2c(-c3ccc(C=O)cc3)c(C(C)C)n3ncnc(N)c23)cc1 [Example 10, 4-amino-6-(4-formylphenyl)-7-isopropyl-N-(4-(methoxymethyl)phenyl)pyrrolo[2,1-f][1,2,4]triazine-5-carboxamide]
